Results on three molecules are retold here after US20220251091A1, “AMORPHOUS UMBRALISIB MONOTOSYLATE” (Johnson Matthey Public Limited Company, priority 2019, published 2022).

Series [1] in a line: Dynamic vapor sorption (DVS). Type of series: physicochemical. To be noted: for hygroscopicity by DVS: 3 cycles. The protocol: (§1) DVS samples (5-10 mg) are analyzed using a TA Instruments Q5000 SA powerful dynamic vapor sorption analyzer. The relative humidity is started at about 50% and adjusted to between about 0-90% humidity with about a 10% increase or decrease in humidity for each step for 3 cycles. The weight of the sample is continuously monitored and recorded.

The nature of series [2]: XRPD of the sample after DVS. Type of series: physicochemical. The protocol: (§2) XRPD patterns are obtained using a Bruker D8 Advance equipped with a Cu Kα radiation source (λ=1.54 Å), a 9-position sample holder and a LYNXEYE super speed detector. Samples are placed on zero-background, silicon plate holders for analysis. One skilled in the art would recognize that the ° 20 values and the relative intensity values are generated by performing a peak search on the measured data and the d-spacing values are calculated by the instrument from the ° 20 values using Bragg's equation. One skilled in the art would further recognize that the relative intensity for the measured peaks may vary as a result of sample preparation, orientation and instrument used, for example.
as §1

Series [3] can be described thus: XRPD after storage at about 40° C. under vacuum for about two weeks. The series is classed as physicochemical. The protocol: as §2
In the next series the target is T1, PI3K-delta (Homo sapiens, UniProt O00329).
T1 construct: host or cells: patients (clinical trial)
To be noted: Phase 2 trial, relapsed/refractory marginal zone lymphoma; cited from earlier work.

T1 sequence (O00329 whole entry): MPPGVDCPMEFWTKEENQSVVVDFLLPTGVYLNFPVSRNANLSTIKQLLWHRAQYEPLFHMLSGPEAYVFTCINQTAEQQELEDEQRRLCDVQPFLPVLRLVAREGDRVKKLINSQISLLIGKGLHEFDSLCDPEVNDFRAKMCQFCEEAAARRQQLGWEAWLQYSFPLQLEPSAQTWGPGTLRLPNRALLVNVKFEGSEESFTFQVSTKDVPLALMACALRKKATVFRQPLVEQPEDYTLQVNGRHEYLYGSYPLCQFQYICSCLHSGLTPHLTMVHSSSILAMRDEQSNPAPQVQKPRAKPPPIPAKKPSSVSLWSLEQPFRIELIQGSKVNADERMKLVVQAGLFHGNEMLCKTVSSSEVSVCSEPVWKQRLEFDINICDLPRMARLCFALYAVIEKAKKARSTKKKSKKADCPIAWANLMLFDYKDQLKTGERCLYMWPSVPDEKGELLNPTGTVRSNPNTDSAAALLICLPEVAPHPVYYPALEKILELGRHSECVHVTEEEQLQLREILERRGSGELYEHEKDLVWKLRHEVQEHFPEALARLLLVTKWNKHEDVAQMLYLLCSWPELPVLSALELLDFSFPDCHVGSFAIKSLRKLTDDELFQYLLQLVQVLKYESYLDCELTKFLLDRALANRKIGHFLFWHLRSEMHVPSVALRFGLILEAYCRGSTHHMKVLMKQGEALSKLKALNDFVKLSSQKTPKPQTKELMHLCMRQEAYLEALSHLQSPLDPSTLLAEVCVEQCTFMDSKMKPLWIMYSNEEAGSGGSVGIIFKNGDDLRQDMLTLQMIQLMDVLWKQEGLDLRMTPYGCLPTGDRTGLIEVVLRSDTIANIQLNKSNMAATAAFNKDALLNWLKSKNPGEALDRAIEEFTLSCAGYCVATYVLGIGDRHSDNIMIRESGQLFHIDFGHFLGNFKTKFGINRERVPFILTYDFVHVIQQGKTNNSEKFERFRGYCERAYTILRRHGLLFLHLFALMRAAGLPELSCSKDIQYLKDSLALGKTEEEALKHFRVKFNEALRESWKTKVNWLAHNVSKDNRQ
T1 sequence (P27986 whole entry partner): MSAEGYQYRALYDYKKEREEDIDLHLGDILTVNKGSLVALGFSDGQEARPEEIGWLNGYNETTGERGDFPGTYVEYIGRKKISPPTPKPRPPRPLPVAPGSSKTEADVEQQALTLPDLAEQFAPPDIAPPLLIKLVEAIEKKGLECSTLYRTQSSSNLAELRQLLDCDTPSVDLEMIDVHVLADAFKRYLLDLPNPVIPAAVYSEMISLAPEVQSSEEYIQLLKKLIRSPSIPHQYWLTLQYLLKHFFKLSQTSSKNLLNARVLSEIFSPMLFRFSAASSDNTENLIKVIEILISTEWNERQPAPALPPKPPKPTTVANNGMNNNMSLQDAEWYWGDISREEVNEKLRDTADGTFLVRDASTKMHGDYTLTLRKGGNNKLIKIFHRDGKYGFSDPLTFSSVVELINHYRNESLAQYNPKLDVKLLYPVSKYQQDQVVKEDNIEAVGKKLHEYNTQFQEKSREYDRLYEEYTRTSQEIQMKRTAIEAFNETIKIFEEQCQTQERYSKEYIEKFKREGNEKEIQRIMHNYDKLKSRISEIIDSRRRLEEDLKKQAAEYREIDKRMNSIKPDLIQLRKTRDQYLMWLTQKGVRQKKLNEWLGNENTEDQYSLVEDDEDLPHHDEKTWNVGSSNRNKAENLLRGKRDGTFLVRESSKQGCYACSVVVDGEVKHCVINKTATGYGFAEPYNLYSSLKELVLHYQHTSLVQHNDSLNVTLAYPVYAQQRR

With `CC(C)Oc1ccc(-c2nn([C@@H](C)c3oc4ccc(F)cc4c(=O)c3-c3cccc(F)c3)c3ncnc(N)c23)cc1F` [Example 2, amorphous umbralisib monotosylate], in series [1], the “hygroscopicity by DVS” value is recorded as “hygroscopic”, the “weight change between about 0-90% relative humidity” value is ~4% and the “weight change in the sample over three cycles” value is given as ~0.5%. Further, the “solid form by XRPD after DVS” value in series [2] was “still amorphous”. In addition, in series [3], the “solid form by XRPD after storage” value was “still amorphous”.
Consider `CC(C)Oc1ccc(-c2nn([C@@H](C)c3oc4ccc(F)cc4c(=O)c3-c3cccc(F)c3)c3ncnc(N)c23)cc1F` [umbralisib, (S)-2-(1-(4-amino-3-(3-fluoro-4-isopropoxyphenyl)-1H-pyrazolo[3,4-d]pyrimidin-1-yl)ethyl)-6-fluoro-3-(3-fluorophenyl)-4H-chromen-4-one], for which, on PI3K-delta, the “PI3K-delta inhibition in patients” value was “effective PI3K-delta inhibition” and the tolerability in patients entry is on record as “well-tolerated”.
For the molecule `CC(C)Oc1ccc(-c2nn([C@@H](C)c3oc4ccc(F)cc4c(=O)c3-c3cccc(F)c3)c3ncnc(N)c23)cc1F` [Example 1, amorphous umbralisib monotosylate], in series [1], the “hygroscopicity by DVS” value was “hygroscopic”, the “weight change between about 0-90% relative humidity” value is on record as ~4% and the “weight change in the sample over three cycles” value was < 1%. Also, in series [2], the “solid form by XRPD after DVS” value is “still amorphous”.
